From PubChem BioAssay AID1845198 (Molecular Pharmacology Branch, DTP, NCI, 2023)

Test system: 425362-245-T-J1 tumor spheroids, viability % test/control
Assay: Anticancer human tumor 425362-245-T-J1 patient-derived melanoma cell line growth inhibition
Conditions: spheroids with HUVEC and MSC; for IC50: curve of first compound; for viability, T/C: stronger effect = lower value
Summary of the method: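 Single agents and combinations were tested on spheroids built from tumor cells plus HUVEC and hMSC, at half-log dilutions starting at or near clinical Cmax, else 10 microM; final DMSO 0.25% (v/v).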
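Note: spheroids exposed to agents for 7 days.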

COc1cc(C)[nH]c(=O)c1CN1CCc2c(Cl)cc(C(OC)C3COC3)c(Cl)c2C1=O (stereo not given) + Cn1nnc2c(C(N)=O)ncn2c1=O
IC50 (second compound 1 µM): > 10000 nM
IC50 (second compound 3.16 µM): > 10000 nM
IC50 (second compound 10 µM): > 10000 nM
IC50 (second compound 31.6 µM): > 10000 nM
IC50 (second compound 100 µM): > 10000 nM
viability, T/C (second compound 1 µM, first compound 0.0316 µM): 87%
viability, T/C (second compound 1 µM, first compound 0.1 µM): 96.6%
viability, T/C (second compound 1 µM, first compound 0.316 µM): 95.9%
viability, T/C (second compound 1 µM, first compound 1 µM): 92.1%
viability, T/C (second compound 1 µM, first compound 3.16 µM): 89.8%
viability, T/C (second compound 1 µM, first compound 10 µM): 84.7%
viability, T/C (second compound 3.16 µM, first compound 0.0316 µM): 114%
viability, T/C (second compound 3.16 µM, first compound 0.1 µM): 103%
viability, T/C (second compound 3.16 µM, first compound 0.316 µM): 110%
viability, T/C (second compound 3.16 µM, first compound 1 µM): 105%
viability, T/C (second compound 3.16 µM, first compound 3.16 µM): 101%
viability, T/C (second compound 3.16 µM, first compound 10 µM): 92.4%
viability, T/C (second compound 10 µM, first compound 0.0316 µM): 104%
viability, T/C (second compound 10 µM, first compound 0.1 µM): 99.9%
viability, T/C (second compound 10 µM, first compound 0.316 µM): 114%
viability, T/C (second compound 10 µM, first compound 1 µM): 114%
viability, T/C (second compound 10 µM, first compound 3.16 µM): 95.8%
viability, T/C (second compound 10 µM, first compound 10 µM): 97.6%
viability, T/C (second compound 31.6 µM, first compound 0.0316 µM): 113%
viability, T/C (second compound 31.6 µM, first compound 0.1 µM): 111%
viability, T/C (second compound 31.6 µM, first compound 0.316 µM): 100%
viability, T/C (second compound 31.6 µM, first compound 1 µM): 107%
viability, T/C (second compound 31.6 µM, first compound 3.16 µM): 89%
viability, T/C (second compound 31.6 µM, first compound 10 µM): 93.5%
viability, T/C (second compound 100 µM, first compound 0.0316 µM): 94.4%
viability, T/C (second compound 100 µM, first compound 0.1 µM): 90.4%
viability, T/C (second compound 100 µM, first compound 0.316 µM): 90.3%
viability, T/C (second compound 100 µM, first compound 1 µM): 89.7%
viability, T/C (second compound 100 µM, first compound 3.16 µM): 88.3%
viability, T/C (second compound 100 µM, first compound 10 µM): 71.8%

CNCc1ccc(-c2cc(-c3nc(-c4ccc(S(=O)(=O)C(C)C)cc4)cnc3N)on2)cc1 + CC[C@@]1(O)C(=O)OCc2c1cc1n(c2=O)Cc2cc3c(CN(C)C)c(O)ccc3nc2-1
IC50 (second compound 0.003 µM): 55 nM
IC50 (second compound 0.00949 µM): 47.5 nM
IC50 (second compound 0.03 µM): < 9.49 nM
IC50 (second compound 0.0949 µM): < 9.49 nM
IC50 (second compound 0.3 µM): < 9.49 nM
viability, T/C (second compound 0.003 µM, first compound 0.00949 µM): 75.8%
viability, T/C (second compound 0.003 µM, first compound 0.03 µM): 69.4%
viability, T/C (second compound 0.003 µM, first compound 0.0949 µM): 32.7%
viability, T/C (second compound 0.003 µM, first compound 0.3 µM): 5.49%
viability, T/C (second compound 0.003 µM, first compound 0.949 µM): 2.14%
viability, T/C (second compound 0.003 µM, first compound 3 µM): 0.22%
viability, T/C (second compound 0.00949 µM, first compound 0.00949 µM): 70%
viability, T/C (second compound 0.00949 µM, first compound 0.03 µM): 73%
viability, T/C (second compound 0.00949 µM, first compound 0.0949 µM): 17.6%
viability, T/C (second compound 0.00949 µM, first compound 0.3 µM): 4.43%
viability, T/C (second compound 0.00949 µM, first compound 0.949 µM): 2.33%
viability, T/C (second compound 0.00949 µM, first compound 3 µM): 0.18%
viability, T/C (second compound 0.03 µM, first compound 0.00949 µM): 33.9%
viability, T/C (second compound 0.03 µM, first compound 0.03 µM): 17.8%
viability, T/C (second compound 0.03 µM, first compound 0.0949 µM): 10.4%
viability, T/C (second compound 0.03 µM, first compound 0.3 µM): 2.7%
viability, T/C (second compound 0.03 µM, first compound 0.949 µM): 1.35%
viability, T/C (second compound 0.03 µM, first compound 3 µM): 0.15%
viability, T/C (second compound 0.0949 µM, first compound 0.00949 µM): 4.36%
viability, T/C (second compound 0.0949 µM, first compound 0.03 µM): 4.83%
viability, T/C (second compound 0.0949 µM, first compound 0.0949 µM): 2.64%
viability, T/C (second compound 0.0949 µM, first compound 0.3 µM): 2.59%
viability, T/C (second compound 0.0949 µM, first compound 0.949 µM): 1.05%
viability, T/C (second compound 0.0949 µM, first compound 3 µM): 0.21%
viability, T/C (second compound 0.3 µM, first compound 0.00949 µM): 1.97%
viability, T/C (second compound 0.3 µM, first compound 0.03 µM): 1.87%
viability, T/C (second compound 0.3 µM, first compound 0.0949 µM): 1.95%
viability, T/C (second compound 0.3 µM, first compound 0.3 µM): 1.64%
viability, T/C (second compound 0.3 µM, first compound 0.949 µM): 1.08%
viability, T/C (second compound 0.3 µM, first compound 3 µM): 0.28%
